Measured values published in ChEMBL document CHEMBL3885861, “Open TG-GATES”.

Organism: Rattus norvegicus
Test: Open TG-GATES - Regimen: Single
Format: toxicity, organism-based, Sprague-Dawley
Parameters: regimen Single, gender Male, age 6 weeks
Conditions: in vivo, po, 300 mg/kg, route gavage, dose level Middle; for APTT / Bas / Eos / Fbg / Hb / Ht / Lym / MCH / MCHC / MCV / Mono / Neu / Plat / RBC / Ret / WBC: tissue Blood; for KIDNEY_L / KIDNEY_R / KIDNEY_TOTAL: tissue Kidney; for LIVER: tissue Liver; for ALP / ALT / AST / CRE / DBIL / GLC / IP / K / LDH / Na / PL / RALB / TBIL / TC / TG / TP / gamma-GTP: tissue Plasma

CN(C)CCC=C1c2ccccc2COc2ccccc21 [DOXEPIN]
TERMINAL_BW (6 h): 194.4 g | APTT (6 h): 17.3 s | Bas (6 h): 0.2% | Eos (6 h): 0.8% | Fbg (6 h): 290 mg/dL | Hb (6 h): 12.9 g/dL | Ht (6 h): 40% | Lym (6 h): 74.2% | MCH (6 h): 21.3 pg | MCHC (6 h): 32.4% | MCV (6 h): 66 fL | Mono (6 h): 3% | Neu (6 h): 21% | Plat (6 h): 126.3 x10_4/uL | RBC (6 h): 605.6 x10_4/ul | Ret (6 h): 9.5% | WBC (6 h): 84.5 x10_2/uL | KIDNEY_L (6 h): 0.9 g | KIDNEY_R (6 h): 0.9 g | KIDNEY_TOTAL (6 h): 1.8 g | LIVER (6 h): 7.8 g | ALP (6 h): 1630.2 IU/L | ALT (6 h): 42.2 IU/L | AST (6 h): 83.2 IU/L | CRE (6 h): 0.1 mg/dL | DBIL (6 h): 0 mg/dL | GLC (6 h): 185 mg/dL | IP (6 h): 11.1 mg/dL | K (6 h): 3.7 meq/L | LDH (6 h): 85.2 IU/L | Na (6 h): 146.2 meq/L | PL (6 h): 141.6 mg/dL | RALB (6 h): 2.5 g/dL | TBIL (6 h): 0.054 mg/dL | TC (6 h): 82.6 mg/dL | TG (6 h): 11.2 mg/dL | TP (6 h): 5.4 g/dL | gamma-GTP (6 h): 1.4 IU/L | TERMINAL_BW (9 h): 192.2 g | APTT (9 h): 17.8 s | Bas (9 h): 0% | Eos (9 h): 1% | Fbg (9 h): 275 mg/dL | Hb (9 h): 13.2 g/dL | Ht (9 h): 39.9% | Lym (9 h): 77.6% | MCH (9 h): 21.9 pg | MCHC (9 h): 33% | MCV (9 h): 66.4 fL | Mono (9 h): 2.6% | Neu (9 h): 18.4% | Plat (9 h): 130.9 x10_4/uL | RBC (9 h): 603.6 x10_4/ul | Ret (9 h): 9.4% | WBC (9 h): 76.7 x10_2/uL | KIDNEY_L (9 h): 0.9 g | KIDNEY_R (9 h): 0.9 g | KIDNEY_TOTAL (9 h): 1.7 g | LIVER (9 h): 7.6 g | ALP (9 h): 1517.4 IU/L | ALT (9 h): 38.2 IU/L | AST (9 h): 64.8 IU/L | CRE (9 h): 0.1 mg/dL | DBIL (9 h): 0.002 mg/dL | GLC (9 h): 184 mg/dL | IP (9 h): 10.4 mg/dL | K (9 h): 3.9 meq/L | LDH (9 h): 74.2 IU/L | Na (9 h): 145.2 meq/L | PL (9 h): 142 mg/dL | RALB (9 h): 2.5 g/dL | TBIL (9 h): 0.06 mg/dL | TC (9 h): 79.2 mg/dL | TG (9 h): 12.2 mg/dL | TP (9 h): 5.5 g/dL | gamma-GTP (9 h): 1 IU/L | TERMINAL_BW (24 h): 185.6 g | APTT (24 h): 16.9 s | Bas (24 h): 0% | Eos (24 h): 0.8% | Fbg (24 h): 277.2 mg/dL | Hb (24 h): 14.8 g/dL | Ht (24 h): 43.9% | Lym (24 h): 81.2% | MCH (24 h): 22 pg | MCHC (24 h): 33.8% | MCV (24 h): 65.2 fL | Mono (24 h): 2.2% | Neu (24 h): 15.6% | Plat (24 h): 130.7 x10_4/uL | RBC (24 h): 672.8 x10_4/ul | Ret (24 h): 7.4% | WBC (24 h): 65.5 x10_2/uL | KIDNEY_L (24 h): 0.9 g | KIDNEY_R (24 h): 0.9 g | KIDNEY_TOTAL (24 h): 1.8 g | LIVER (24 h): 7.3 g | ALP (24 h): 1482.6 IU/L | ALT (24 h): 31.8 IU/L | AST (24 h): 59 IU/L | CRE (24 h): 0.2 mg/dL | DBIL (24 h): 0 mg/dL | GLC (24 h): 173.2 mg/dL | IP (24 h): 9.1 mg/dL | K (24 h): 4.1 meq/L | LDH (24 h): 87 IU/L | Na (24 h): 144.6 meq/L | PL (24 h): 131.8 mg/dL | RALB (24 h): 2.6 g/dL | TBIL (24 h): 0.046 mg/dL | TC (24 h): 74.4 mg/dL | TG (24 h): 30.6 mg/dL | TP (24 h): 5.7 g/dL | gamma-GTP (24 h): 1 IU/L
